The source of these data is ChEMBL document CHEMBL3784918, “Novel 2,4-diaminopyrimidines bearing tetrahydronaphthalenyl moiety against anaplastic lymphoma kinase (ALK): Synthesis, in vitro, ex vivo, and in vivo efficacy studies” (Bioorg Med Chem Lett, 2016).

The source made the active and inactive calls. The rule behind the calls is not given here.

The test system of data set [1] is BaF3. Nature of the data set: Inhibition of ALK L1196M mutant in mouse BA/F3 cells assessed as inhibition of cell proliferation after 72 hrs by WST1 assay. Type of data set: cell-based.
Data set [2] has as its target ALK tyrosine kinase receptor (Homo sapiens, UniProt Q9UM73). Nature of the data set: Inhibition of wild type ALK (unknown origin) after 30 mins by HTRF assay.
In data set [3] the target is ALK tyrosine kinase receptor (Homo sapiens, UniProt Q9UM73, L1196M). Nature of the data set: Inhibition of ALK L1196M mutant (unknown origin) after 30 mins by HTRF assay.
Sequence of ALK tyrosine kinase receptor (Homo sapiens, UniProt Q9UM73, L1196M) (Q9UM73 19-1620 L1196M limits assumed): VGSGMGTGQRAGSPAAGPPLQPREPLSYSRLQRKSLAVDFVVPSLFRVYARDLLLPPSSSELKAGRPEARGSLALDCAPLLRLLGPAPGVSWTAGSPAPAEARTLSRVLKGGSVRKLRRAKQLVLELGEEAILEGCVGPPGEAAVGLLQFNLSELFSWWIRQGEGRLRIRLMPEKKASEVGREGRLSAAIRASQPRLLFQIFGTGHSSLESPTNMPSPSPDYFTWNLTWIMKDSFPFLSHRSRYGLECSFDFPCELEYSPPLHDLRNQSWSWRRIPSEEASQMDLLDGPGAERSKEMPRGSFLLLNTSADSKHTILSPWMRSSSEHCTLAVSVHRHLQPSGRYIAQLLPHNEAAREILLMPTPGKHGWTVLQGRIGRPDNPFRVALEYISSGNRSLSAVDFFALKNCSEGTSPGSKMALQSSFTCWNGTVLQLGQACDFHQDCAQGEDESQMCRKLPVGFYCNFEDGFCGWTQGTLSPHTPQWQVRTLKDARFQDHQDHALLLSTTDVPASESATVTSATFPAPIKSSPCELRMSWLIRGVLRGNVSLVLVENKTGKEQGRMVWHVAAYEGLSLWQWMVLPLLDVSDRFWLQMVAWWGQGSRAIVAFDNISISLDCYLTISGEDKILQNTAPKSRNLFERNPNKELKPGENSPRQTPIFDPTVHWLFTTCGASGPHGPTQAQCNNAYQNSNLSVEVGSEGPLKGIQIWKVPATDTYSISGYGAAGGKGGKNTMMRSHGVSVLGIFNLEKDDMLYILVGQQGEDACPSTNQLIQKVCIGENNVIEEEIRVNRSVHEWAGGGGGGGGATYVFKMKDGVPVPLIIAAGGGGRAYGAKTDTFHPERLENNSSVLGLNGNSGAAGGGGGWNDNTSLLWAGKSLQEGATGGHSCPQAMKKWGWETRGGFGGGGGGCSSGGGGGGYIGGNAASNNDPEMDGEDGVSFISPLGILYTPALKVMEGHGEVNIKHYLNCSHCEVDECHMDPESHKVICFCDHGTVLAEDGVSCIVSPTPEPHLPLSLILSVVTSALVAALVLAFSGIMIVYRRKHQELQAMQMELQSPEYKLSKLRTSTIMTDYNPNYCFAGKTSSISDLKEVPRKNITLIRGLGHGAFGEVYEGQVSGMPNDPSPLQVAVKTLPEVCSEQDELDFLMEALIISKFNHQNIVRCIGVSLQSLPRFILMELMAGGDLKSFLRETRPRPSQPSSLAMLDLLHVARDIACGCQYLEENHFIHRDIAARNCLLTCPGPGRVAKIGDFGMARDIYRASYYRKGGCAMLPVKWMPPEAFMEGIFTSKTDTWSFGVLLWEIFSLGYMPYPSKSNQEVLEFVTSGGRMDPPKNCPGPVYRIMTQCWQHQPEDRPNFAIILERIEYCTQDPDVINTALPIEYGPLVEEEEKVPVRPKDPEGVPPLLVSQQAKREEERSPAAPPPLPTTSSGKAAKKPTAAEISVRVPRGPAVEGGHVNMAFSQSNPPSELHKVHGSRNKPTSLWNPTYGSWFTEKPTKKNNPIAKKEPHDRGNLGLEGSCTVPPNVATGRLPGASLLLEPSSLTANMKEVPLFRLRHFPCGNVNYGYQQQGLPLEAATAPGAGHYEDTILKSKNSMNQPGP
The target of data set [4] is EML4-ALK (Homo sapiens) (UniProt Q9UM73+Q9HC35). In words: Inhibition of EML4-ALK in human NCI-H3122 cells assessed as inhibition of cell proliferation after 72 hrs by SRB assay. In kind it is cell-based.
Sequence of EML4-ALK (Homo sapiens) (Q9HC35 whole entry partner): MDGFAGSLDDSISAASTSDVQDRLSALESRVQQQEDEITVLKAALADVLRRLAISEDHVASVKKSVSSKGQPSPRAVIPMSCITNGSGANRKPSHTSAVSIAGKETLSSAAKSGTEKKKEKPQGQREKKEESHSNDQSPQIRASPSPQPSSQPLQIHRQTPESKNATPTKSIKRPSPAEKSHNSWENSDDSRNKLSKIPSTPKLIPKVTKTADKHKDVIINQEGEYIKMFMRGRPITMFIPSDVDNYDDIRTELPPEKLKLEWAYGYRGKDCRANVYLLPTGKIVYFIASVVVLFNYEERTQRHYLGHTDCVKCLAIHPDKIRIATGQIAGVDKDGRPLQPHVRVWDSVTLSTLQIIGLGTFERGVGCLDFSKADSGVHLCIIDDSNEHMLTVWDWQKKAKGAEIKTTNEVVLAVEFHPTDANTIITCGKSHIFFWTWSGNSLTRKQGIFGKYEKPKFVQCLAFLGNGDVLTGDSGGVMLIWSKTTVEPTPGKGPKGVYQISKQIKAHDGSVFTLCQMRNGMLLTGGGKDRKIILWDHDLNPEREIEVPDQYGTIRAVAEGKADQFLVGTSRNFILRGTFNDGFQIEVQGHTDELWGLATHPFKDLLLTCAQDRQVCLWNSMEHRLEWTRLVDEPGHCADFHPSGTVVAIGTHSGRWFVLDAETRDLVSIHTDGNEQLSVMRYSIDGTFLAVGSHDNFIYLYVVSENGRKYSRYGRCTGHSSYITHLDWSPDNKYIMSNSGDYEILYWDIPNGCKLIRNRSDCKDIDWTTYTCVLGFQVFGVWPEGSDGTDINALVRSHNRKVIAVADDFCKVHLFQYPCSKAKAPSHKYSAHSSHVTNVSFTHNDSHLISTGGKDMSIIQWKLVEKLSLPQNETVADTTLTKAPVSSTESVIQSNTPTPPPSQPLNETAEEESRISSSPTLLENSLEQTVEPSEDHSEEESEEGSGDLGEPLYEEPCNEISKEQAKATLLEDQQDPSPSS
Sequence of EML4-ALK (Homo sapiens) (Q9UM73 19-1620 limits assumed): as the sequence (Q9UM73 19-1620 L1196M limits assumed) above, with M1178L counted along it
Data set [5] in a line: Half life in cannulated Sprague Dawley rat at 10 mg/kg administered through oral gavage by LC/MS/MS analysis. In kind it is ADME, organism-based. Particulars: in vivo.
The target of data set [6] is CYP2D6 (Homo sapiens, UniProt P10635). Nature of the data set: Inhibition of CYP2D6 (unknown origin) at 10 uM. Type of data set: ADME.
Data set [7] can be described thus: Metabolic stability of the compound in mouse liver microsomes assessed as compound remaining at 1 uM after 30 mins by LC/MS/MS analysis in the presence of NADPH. In kind it is ADME. The following applies: read-out: Stability.
The target in data set [8] is CYP2C19 (Homo sapiens, UniProt P33261). Nature of the data set: Inhibition of CYP2C19 (unknown origin) at 10 uM. Type of data set: ADME.
Sequence of CYP2C19 (P33261 whole entry): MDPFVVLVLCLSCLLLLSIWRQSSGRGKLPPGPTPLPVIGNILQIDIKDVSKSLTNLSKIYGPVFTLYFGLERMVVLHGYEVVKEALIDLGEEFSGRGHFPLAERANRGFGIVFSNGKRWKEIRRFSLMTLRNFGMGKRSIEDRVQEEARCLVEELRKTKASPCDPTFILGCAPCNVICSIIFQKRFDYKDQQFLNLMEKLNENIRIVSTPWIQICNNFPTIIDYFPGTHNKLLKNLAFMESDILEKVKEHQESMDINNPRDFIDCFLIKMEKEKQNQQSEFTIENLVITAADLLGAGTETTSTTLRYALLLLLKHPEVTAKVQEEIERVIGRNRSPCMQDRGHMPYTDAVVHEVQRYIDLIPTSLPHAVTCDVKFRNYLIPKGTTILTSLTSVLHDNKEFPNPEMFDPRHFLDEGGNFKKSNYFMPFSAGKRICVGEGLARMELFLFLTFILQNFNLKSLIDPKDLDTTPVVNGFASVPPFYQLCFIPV
The target in data set [9] is CYP1A2 (Homo sapiens, UniProt P05177). In words: Inhibition of CYP1A2 (unknown origin) at 10 uM. Type of data set: ADME.
The target in data set [10] is CYP2C9 (Homo sapiens, UniProt P11712). In words: Inhibition of CYP2C9 (unknown origin) at 10 uM. In kind it is ADME.
Data set [11] is described as follows: AUCinfinity in cannulated Sprague Dawley rat at 10 mg/kg administered through oral gavage by LC/MS/MS analysis. In kind it is ADME, organism-based. Further details: dose 10 mg/kg, time infinity, route oral. The following applies: in vivo.
Data set [12] can be described thus: Cmax in cannulated Sprague Dawley rat at 10 mg/kg administered through oral gavage by LC/MS/MS analysis. More on the design: dose 10 mg/kg, route oral. Particulars: in vivo. In kind it is ADME, organism-based.
The nature of data set [13]: AUCt in cannulated Sprague Dawley rat at 10 mg/kg administered through oral gavage by LC/MS/MS analysis. Type of data set: ADME, organism-based. The following applies: in vivo.
Data set [14] deals with CYP3A4 (Homo sapiens, UniProt P08684). Nature of the data set: Inhibition of CYP3A4 (unknown origin) at 10 uM. Type of data set: ADME.
Data set [15] has as its system Mus musculus. In words: Toxicity in SCID mouse xenografted with human H3122 cells assessed as change in body weight at 50 mg/kg, po administered qd for 14 days measured during compound dosing. Type of data set: organism-based. The following applies: in vivo, 336 h.
Data set [16] in a line: Tmax in cannulated Sprague Dawley rat at 10 mg/kg administered through oral gavage by LC/MS/MS analysis. Type of data set: ADME, organism-based. The following applies: in vivo.
A short description of data set [17]: Metabolic stability of the compound in human liver microsomes assessed as compound remaining at 1 uM after 30 mins by LC/MS/MS analysis in the presence of NADPH. Type of data set: ADME. Particulars: read-out: Stability.
Data set [18] relates to NCI-H3122. Nature of the data set: Antitumor activity against human NCI-H3122 cells xenografted in SCID mouse assessed as tumor growth inhibition at 50 mg/kg, po administered qd for 14 days. In kind it is functional, organism-based.

Sequence of ALK tyrosine kinase receptor (Homo sapiens, UniProt Q9UM73) (Q9UM73 whole entry): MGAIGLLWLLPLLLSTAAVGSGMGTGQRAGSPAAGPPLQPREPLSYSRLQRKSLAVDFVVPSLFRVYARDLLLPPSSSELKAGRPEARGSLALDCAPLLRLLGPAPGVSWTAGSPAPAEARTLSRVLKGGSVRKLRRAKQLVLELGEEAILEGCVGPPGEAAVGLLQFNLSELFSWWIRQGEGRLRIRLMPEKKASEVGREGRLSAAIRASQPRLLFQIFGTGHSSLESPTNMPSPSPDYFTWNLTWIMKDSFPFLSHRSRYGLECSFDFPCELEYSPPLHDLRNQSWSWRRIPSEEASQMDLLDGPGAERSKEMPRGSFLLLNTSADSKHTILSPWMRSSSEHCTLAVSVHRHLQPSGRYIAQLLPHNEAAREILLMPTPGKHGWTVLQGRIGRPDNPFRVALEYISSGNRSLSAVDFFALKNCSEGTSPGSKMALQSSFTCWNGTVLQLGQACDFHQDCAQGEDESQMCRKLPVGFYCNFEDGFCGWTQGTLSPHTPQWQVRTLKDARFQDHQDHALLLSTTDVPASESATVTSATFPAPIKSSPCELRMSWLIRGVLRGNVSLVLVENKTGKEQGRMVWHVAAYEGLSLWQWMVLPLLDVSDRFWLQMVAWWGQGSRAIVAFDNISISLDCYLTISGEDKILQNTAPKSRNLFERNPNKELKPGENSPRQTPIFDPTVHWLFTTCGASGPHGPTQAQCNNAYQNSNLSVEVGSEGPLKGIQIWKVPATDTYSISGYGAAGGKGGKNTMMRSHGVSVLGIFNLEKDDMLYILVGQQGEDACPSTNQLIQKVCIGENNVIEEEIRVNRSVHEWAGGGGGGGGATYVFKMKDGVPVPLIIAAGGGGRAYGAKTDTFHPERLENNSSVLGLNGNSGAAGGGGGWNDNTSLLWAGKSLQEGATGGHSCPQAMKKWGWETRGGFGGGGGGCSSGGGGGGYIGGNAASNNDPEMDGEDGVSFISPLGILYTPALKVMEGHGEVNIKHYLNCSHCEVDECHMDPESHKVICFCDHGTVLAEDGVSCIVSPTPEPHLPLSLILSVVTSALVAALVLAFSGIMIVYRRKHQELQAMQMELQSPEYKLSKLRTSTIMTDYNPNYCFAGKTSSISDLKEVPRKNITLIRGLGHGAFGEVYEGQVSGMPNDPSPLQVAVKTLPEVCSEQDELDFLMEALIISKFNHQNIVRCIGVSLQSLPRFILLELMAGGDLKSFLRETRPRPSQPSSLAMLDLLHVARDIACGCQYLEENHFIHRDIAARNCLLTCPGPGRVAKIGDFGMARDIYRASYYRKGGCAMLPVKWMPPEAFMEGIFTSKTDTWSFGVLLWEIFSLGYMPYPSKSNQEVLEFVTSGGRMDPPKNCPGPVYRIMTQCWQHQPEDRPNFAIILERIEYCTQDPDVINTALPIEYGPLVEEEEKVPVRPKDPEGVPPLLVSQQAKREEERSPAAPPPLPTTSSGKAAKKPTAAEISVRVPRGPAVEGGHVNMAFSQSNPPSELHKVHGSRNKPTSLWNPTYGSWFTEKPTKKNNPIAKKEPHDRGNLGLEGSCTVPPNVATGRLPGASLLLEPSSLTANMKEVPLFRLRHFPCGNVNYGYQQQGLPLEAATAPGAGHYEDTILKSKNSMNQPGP

Consider `COc1cc2c(cc1Nc1ncc(Cl)c(Nc3ccccc3S(=O)(=O)C(C)C)n1)CCC(NC(=O)CN(C)C)C2(C)C` (stereo unspecified), for which the values for the CC50 in [1] and in [4] were 71 nM and 39 nM, respectively. Also, the IC50 in data set [2] was 4.2 nM; in [3], 3.6 nM.

Regarding `COc1cc2c(cc1Nc1ncc(Cl)c(Nc3ccccc3S(=O)(=O)C(C)C)n1)C(C)(C)/C(=N/N1CCOCC1)CC2`, the CC50 in data set [1] came out at 1640 nM; in data set [4], 732 nM. The half-maximal inhibitory concentration (IC50) in data set [2] came to 122 nM; in data set [3], 222 nM.

As to `COc1cc2c(cc1Nc1ncc(Cl)c(Nc3ccccc3S(=O)(=O)C(C)C)n1)C(C)(C)C(N)CC2` (stereo unspecified), the results for the half-maximal cytotoxic concentration (CC50) in data set [1] and in data set [4] were 1750 nM and 2090 nM, respectively. Besides, the concentration for half-maximal inhibition (IC50) in data set [2] worked out at 27 nM; in data set [3], 94 nM.

For the compound `COc1cc2c(cc1Nc1ncc(Cl)c(Nc3ccccc3S(=O)(=O)C(C)C)n1)C(C)(C)C(O)CC2` (stereo unspecified), the values for the CC50 in [1] and in data set [4] were 1600 nM and 726 nM, respectively. Also, the IC50 amounted to 34 nM in [2] and 109 nM in [3].

For the compound `COc1cc2c(cc1Nc1ncc(Cl)c(Nc3ccccc3S(=O)(=O)C(C)C)n1)CC/C(=N\NC(N)=O)C2(C)C`, the 50% cytotoxic concentration (CC50) was 334 nM in data set [1] and 117 nM in [4]. Besides, the IC50 in data set [2] was 29 nM; in [3] it was 42 nM.

For the compound `COc1cc2c(cc1Nc1ncc(Cl)c(Nc3ccccc3S(=O)(=O)C(C)C)n1)C(C)(C)/C(=N/NC(N)=O)CC2`, the cytotoxic concentration (CC50) was 400 nM in [1] and 146 nM in data set [4]. Further, the figures for the IC50 in [2] and in data set [3] were 16 nM and 97 nM, respectively.

In turn, `COc1cc2c(cc1Nc1ncc(Cl)c(Nc3ccccc3S(=O)(=O)C(C)C)n1)CC/C(=N\N1CCN(C)CC1)C2(C)C` had a half-life in [5] of 3.04 h. Also, the inhibition at 10 µM in data set [6] stood at 11.4%; in [8], 43.4%; in [9], 7.2%; in data set [10] it was 17.1%; in data set [14], 47.5%. For the same compound, the remaining at 0.5 h, 1 µM in data set [7] was found to be 14%; in [17], 20%. Moreover, the CC50 in data set [1] turned out to be 66 nM; in data set [4] it was 14 nM. Besides, the figures for the IC50 in data set [2] and in data set [3] were 0.5 nM and 8.4 nM, respectively. The compound also yielded a total exposure AUC(0-inf) in data set [11] of 3760 ng·h/mL. Also, the highest concentration (Cmax) in data set [12] stood at 1270 ng/mL. The AUC(0-t) in [13] was 3750 ng·h/mL. Further, the Activity entry in [15] is on record as “Non-toxic”. For the same compound, the time of peak concentration (Tmax) in data set [16] came out at 0.833 h. Besides, in data set [18], the TGI result is “Active”.

In the case of `COc1cc2c(cc1Nc1ncc(Cl)c(Nc3ccccc3S(=O)(=O)C(C)C)n1)CCC(NC(=O)CO)C2(C)C` (stereo unspecified), the CC50 in [1] amounted to 86 nM; in data set [4], 44 nM. In addition, the values for the IC50 in data set [2] and in [3] were 6.1 nM and 9.9 nM, respectively.

For the compound `Cc1cc(Nc2ncc(Cl)c(Nc3ccccc3S(=O)(=O)C(C)C)n2)c(OC(C)C)cc1C1CCNCC1`, the half-maximal cytotoxic concentration (CC50) in [1] was 75 nM; in data set [4], 38 nM. Besides, the TGI entry in [18] is “Active”.

In the case of `COc1cc2c(cc1Nc1ncc(Cl)c(Nc3ccccc3S(=O)(=O)C(C)C)n1)C(C)(C)/C(=N/NC(C)=O)CC2`, the values for the cytotoxic concentration (CC50) in [1] and in [4] were 640 nM and 146 nM, respectively. Also, the 50% inhibitory concentration (IC50) came to 52 nM in data set [2] and 201 nM in [3].

For `COc1cc2c(cc1Nc1ncc(Cl)c(Nc3ccccc3S(=O)(=O)C(C)C)n1)C(C)(C)C(=O)CC2`, the CC50 in data set [1] is 2000 nM.

Consider `COc1cc2c(cc1Nc1ncc(Cl)c(Nc3ccccc3S(=O)(=O)C(C)C)n1)CC/C(=N\O)C2(C)C`, for which the figures for the cytotoxic concentration (CC50) in [1] and in data set [4] were 1530 nM and 276 nM, respectively. In addition, the IC50 in data set [2] worked out at 212 nM.

With `COc1cc2c(cc1Nc1ncc(Cl)c(Nc3ccccc3S(=O)(=O)C(C)C)n1)CCC(=O)C2(C)C`, the half-maximal cytotoxic concentration (CC50) in data set [1] stood at 432 nM.

Turning to `COc1cc2c(cc1Nc1ncc(Cl)c(Nc3ccccc3S(=O)(=O)C(C)C)n1)C(C)(C)/C(=N/O)CC2`, the CC50 in data set [1] came out at 1360 nM; in data set [4] it was 1220 nM. The IC50 in [2] was 424 nM; in [3], 600 nM.

Regarding `COc1cc2c(cc1Nc1ncc(Cl)c(Nc3ccccc3S(=O)(=O)C(C)C)n1)CCC(O)C2(C)C` (stereo unspecified), the CC50 in data set [1] was 299 nM; in data set [4] it was 99 nM. For the same compound, the IC50 is 21 nM in [2] and 56 nM in data set [3].

On to `COc1cc2c(cc1Nc1ncc(Cl)c(Nc3ccccc3S(=O)(=O)C(C)C)n1)C(C)(C)/C(=N/NC(=N)N)CC2`, for which the 50% cytotoxic concentration (CC50) was determined as 2090 nM in data set [1] and 2400 nM in [4]. Moreover, the IC50 came to 16 nM in data set [2] and 100 nM in data set [3].

For `COc1cc2c(cc1Nc1ncc(Cl)c(Nc3ccccc3S(=O)(=O)C(C)C)n1)C(C)(C)/C(=N/N1CCN(C)CC1)CC2`, the CC50 in [1] came to 2600 nM; in data set [4], 2830 nM. Besides, the IC50 turned out to be 44 nM in data set [2] and 200 nM in [3].

On to `COc1cc2c(cc1Nc1ncc(Cl)c(Nc3ccccc3S(=O)(=O)C(C)C)n1)CC/C(=N\N1CCOCC1)C2(C)C`, for which the CC50 in [1] came to 416 nM; in [4], 30 nM. For the same compound, the concentration for half-maximal inhibition (IC50) in data set [2] and in data set [3] was 40 nM in each case.

With `COc1cc2c(cc1Nc1ncc(Cl)c(Nc3ccccc3S(=O)(=O)C(C)C)n1)CC/C(=N\NC(=N)N)C2(C)C`, the figures for the CC50 in data set [1] and in [4] were 1580 nM and 235 nM, respectively. Also, the IC50 in [2] was found to be 18 nM; in [3], 37 nM.

As for `COc1cc2c(cc1Nc1ncc(Cl)c(Nc3ccccc3S(=O)(=O)C(C)C)n1)CC/C(=N\NC(C)=O)C2(C)C`, the CC50 in [1] was 314 nM; in data set [4] it was 128 nM. Besides, the IC50 in data set [2] came to 21 nM; in [3] it was 40 nM.
